Assay results reported in US10669284B2, “Fused thiazolopyrimidine derivatives as MNKS inhibitors” (LIFEARC, priority 2015, dated 2020).

Assays:
Full-length human MNK1 = target: T1, Full-length human MNK1 (Homo sapiens, UniProt Q9BUB5, T385D); assay: MNK1 biochemical IC50 assay (Caliper Mobility Shift Assay); settings: read-out: P(IC50) MNK1 (converted)
T1 construct: GST (N); purchased Carna Biosciences 02-145; host or cells: baculovirus expression system
Excerpt: (§1) The phosphorylated peptide product and unphosphorylated peptide substrate were detected using a Caliper Mobility Shift Assay using the Caliper LabChip EZ Reader II.
(§2) The Caliper Mobility Shift Assay technology is based on the utilisation of a microfluidic chip to measure the conversion of a fluorescent non-phosphorylated peptide substrate to phosphorylated product by electrophoresis separation of substrate and product and detection via Laser-induced fluorescence. The LabChip EZ Reader software calculates the relative heights of substrate and product peaks and reports the peak ratio (Product peak(P) divided by the sum of Product peak(P) and Substrate peak(S)). The percent-conversion is calculated as 100×[(P/(P+S)]. All assays were set up to run in the linear phase with a maximum of 10 percent substrate conversion.
(§3) These were N-terminal GST fusion proteins expressed in baculovirus expression system and purified by glutathione sepharose affinity chromatography. […] All other assay reagents were sourced from Sigma.
Compounds were serially diluted in DMSO to generate a 10-point half log dilution curve with a final top concentration of 100 uM in the assay. […] Compounds were pre-incubated with enzyme and peptide in reaction buffer for 30 mins prior to addition of ATP to initiate the reaction. Final assay concentrations were 3 nM MNK1, 2 uM peptide substrate, 50 uM ATP, 50 mM Hepes pH 7.0, 0.01% BSA, 10 mM MgCl2, 1 mM dithiothrietol.
(§4) The assay incubation times were adjusted depending on the concentration of ATP used. Assays were performed at low (50 uM) and high (1 mM) ATP. The low ATP values were selected to run at Km conditions for the standard assay to allow relative potencies to be compared across other kinases. The high ATP concentration was selected as representative of cellular ATP concentrations, and for an indication of ATP competition, where a significant shift (greater than half log) in apparent potency would be expected compared to Km conditions. All IC50 values reported are the average of at least two independent experiments.

[1] = tested on: phosphorylation of eIF4E at ser209 in MV4.11 cell line; assay: MNK cellular activity phospho-eIF4E detection assay (Alphascreen Surefire); type: cell-based; settings: Homo sapiens; MV4.11 cell line, phospho-eIF4E (ser209) Alphascreen Surefire; read-out: P(IC50) elF4E (converted)
Procedure: The assay detection is based on the formation of sandwich antibody complexes coupled to donor and acceptor beads. Excitation at 680 nm causes the transfer of a singlet oxygen species between donor and acceptor beads when they are in close proximity by binding to the analyte ([…]), which results in the emission of light at 520-620 nm.
Cells were then lysed and the Alphascreen Surefire protocol followed according to manufacturer's recommendations. 8 ul Acceptor beads (1:50 dilution in kit activation buffer) was added to lysate, shaken 150 rpm for 2 min and incubated for 1.5 hr at room temperature. 3 ul Donor beads (1:20 dilution in kit dilution buffer) were then added, shaken 150 rpm for 2 min and incubated for a further 1.5 hr at room temperature after which the plates were read on Pherastar FS using Alphascreen optic module.
Data were normalised relative to untreated DMSO only controls and curves repeated in duplicate within experiments. Data reported are averages of at least 2 independent experiments.

Full-length human MNK2 = target: T2, Full-length human MNK2 (Homo sapiens, UniProt Q9HBH9, T379D); assay: MNK2 biochemical IC50 assay (Caliper Mobility Shift Assay); settings: read-out: P(IC50) MNK2 (converted)
T2 construct: GST (N); purchased Carna Biosciences 02-146; host or cells: baculovirus expression system
Excerpt: as §1, §2, §3, §4
Reactions were performed as above using 10 nM MNK2 in the assay. Standard assays contained 50 uM ATP and high concentration ATP assays contained 1 mM ATP. […] All other conditions were the same.

T1 sequence (Q9BUB5 1-424 isoform Q9BUB5-2 T344D): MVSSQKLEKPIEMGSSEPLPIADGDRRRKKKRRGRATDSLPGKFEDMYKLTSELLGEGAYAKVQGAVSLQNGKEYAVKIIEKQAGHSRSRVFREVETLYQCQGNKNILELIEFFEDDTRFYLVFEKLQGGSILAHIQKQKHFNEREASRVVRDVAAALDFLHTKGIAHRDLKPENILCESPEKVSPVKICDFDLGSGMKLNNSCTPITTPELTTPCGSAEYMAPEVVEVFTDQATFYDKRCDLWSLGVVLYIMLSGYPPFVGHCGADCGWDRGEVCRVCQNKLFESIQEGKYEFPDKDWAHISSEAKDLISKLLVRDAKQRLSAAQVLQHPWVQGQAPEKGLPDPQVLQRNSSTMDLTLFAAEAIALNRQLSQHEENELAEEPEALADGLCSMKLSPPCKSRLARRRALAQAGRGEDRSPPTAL
T2 sequence (Q9HBH9 whole entry T379D): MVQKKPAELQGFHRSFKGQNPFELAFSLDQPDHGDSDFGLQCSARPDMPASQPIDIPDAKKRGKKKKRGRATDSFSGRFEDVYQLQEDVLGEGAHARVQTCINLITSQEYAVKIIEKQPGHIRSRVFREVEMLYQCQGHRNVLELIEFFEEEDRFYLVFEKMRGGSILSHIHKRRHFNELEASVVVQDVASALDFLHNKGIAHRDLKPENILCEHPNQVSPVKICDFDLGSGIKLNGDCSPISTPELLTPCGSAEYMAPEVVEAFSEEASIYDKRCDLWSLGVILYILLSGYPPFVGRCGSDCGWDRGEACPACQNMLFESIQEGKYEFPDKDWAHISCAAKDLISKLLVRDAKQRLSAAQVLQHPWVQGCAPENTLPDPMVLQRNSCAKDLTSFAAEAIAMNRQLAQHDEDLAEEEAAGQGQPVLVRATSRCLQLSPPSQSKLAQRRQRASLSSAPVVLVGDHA

IC50 (Full-length human MNK1) [nM] | IC50 [1] [nM] | IC50 (Full-length human MNK2) [nM] | SMILES
794 | 316 | 398 | CO[C@@H]1CCCC[C@H]1Oc1cc(F)ccc1Nc1ncnc2sc(C(=O)NCCCN(C)C)nc12 [Example 20, N-[3-(dimethylamino)propyl]-7-[4-fluoro-2-[(1R,2R)-2-methoxycyclohexoxy]anilino]thiazolo[5,4-d]pyrimidine-2-carboxamide]
100 | 63.1 | 63.1 | CC(C)Oc1ccccc1Nc1ncnc2sc(C(=O)NCCCN(C)C)nc12 [Example 23, N-[3-(Dimethylamino)propyl]-7-(2-isopropoxyanilino)thiazolo[5,4-d]pyrimidine-2-carboxamide]
100 | 79.4 | 100 | CCOc1cc(F)ccc1Nc1ncnc2sc(C(=O)NCCCN(C)C)nc12 [Example 24, N-[3-(Dimethylamino)propyl]-7-(2-ethoxy-4-fluoro-anilino)thiazolo[5,4-d]pyrimidine-2-carboxamide]
1580 | 1000 | 1580 | CN(C)CCCNC(=O)c1nc2c(Nc3cccc4c3OCC4)ncnc2s1 [Example 26, 7-(2,3-Dihydrobenzofuran-7-ylamino)-N-[3-(dimethylamino)propyl]thiazolo[5,4-d]pyrimidine-2-carboxamide]
126 | 79.4 | 79.4 | CC(C)Oc1cc(F)ccc1Nc1ncnc2sc(C(=O)NC3CNC3)nc12 [Example 28, N-(azetidin-3-yl)-7-{[4-fluoro-2-(propan-2-yloxy)phenyl]amino}[1,3]thiazolo[5,4-d]pyrimidine-2-carboxamide]
63.1 | 39.8 | 50.1 | CNCCCNC(=O)c1nc2c(Nc3ccc(F)cc3OC(C)C)ncnc2s1 [Example 29, 7-{[4-Fluoro-2-(propan-2-yloxy)phenyl]amino}-N-[3-(methylamino)propyl][1,3]thiazolo[5,4-d]pyrimidine-2-carboxamide]
200 | 100 | 126 | CNCCNC(=O)c1nc2c(Nc3ccc(F)cc3OC(C)C)ncnc2s1 [Example 30, 7-{[4-Fluoro-2-(propan-2-yloxy)phenyl]amino}-N-[2-(methylamino)ethyl][1,3]thiazolo[5,4-d]pyrimidine-2-carboxamide]
63.1 | 50.1 | 50.1 | CC(C)Oc1cc(F)ccc1Nc1ncnc2sc(C(=O)NC3CCNCC3)nc12 [Example 31, 7-{[4-Fluoro-2-(propan-2-yloxy)phenyl]amino}-N-(piperidin-4-yl)[1,3]thiazolo[5,4-d]pyrimidine-2-carboxamide]
50.1 | 39.8 | 39.8 | CC(C)Oc1cc(F)ccc1Nc1ncnc2sc(C(=O)NC3CCN(C)CC3)nc12 [Example 32, 7-{[4-fluoro-2-(propan-2-yloxy)phenyl]amino}-N-(1-methylpiperidin-4-yl)[1,3]thiazolo[5,4-d]pyrimidine-2-carboxamide]
100 | 79.4 | 79.4 | CC(C)Oc1cc(F)ccc1Nc1ncnc2sc(C(=O)NC3CCOCC3)nc12 [Example 33, 7-{[4-fluoro-2-(propan-2-yloxy)phenyl]amino}-N-(tetrahydro-2H-pyran-4-yl)[1,3]thiazolo[5,4-d]pyrimidine-2-carboxamide]
200 | 79.4 | 158 | CC(C)Oc1cc(F)ccc1Nc1ncnc2sc(C(=O)NC3CCS(=O)(=O)CC3)nc12 [Example 34, N-(1,1-dioxidotetrahydro-2H-thiopyran-4-yl)-7-{[4-fluoro-2-(propan-2-yloxy)phenyl]amino}[1,3]thiazolo[5,4-d]pyrimidine-2-carboxamide]
158 | 316 | 200 | CC(C)Oc1cc(F)ccc1Nc1ncnc2sc(C(=O)N3CCC(CN(C)C)CC3)nc12 [Example 35, {4-[(dimethylamino)methyl]piperidin-1-yl}(7-{[4-fluoro-2-(propan-2-yloxy)phenyl]amino}[1,3]thiazolo[5,4-d]pyrimidin-2-yl)methanone]
50.1 | 50.1 | 50.1 | CC(C)Oc1cc(F)ccc1Nc1ncnc2sc(C(=O)NCC3CCN(C)CC3)nc12 [Example 36, 7-{[4-fluoro-2-(propan-2-yloxy)phenyl]amino}-N-[(1-methylpiperidin-4-yl)methyl][1,3]thiazolo[5,4-d]pyrimidine-2-carboxamide]
39.8 | 25.1 | 39.8 | CC(C)Oc1cc(F)ccc1Nc1ncnc2sc(C(=O)NCCC3CCN(C)CC3)nc12 [Example 37, 7-{[4-fluoro-2-(propan-2-yloxy)phenyl]amino}-N-[2-(1-methylpiperidin-4-yl)ethyl][1,3]thiazolo[5,4-d]pyrimidine-2-carboxamide]
100 | 79.4 | 63.1 | CC(C)Oc1cc(F)ccc1Nc1ncnc2sc(C(=O)NCC3CCOCC3)nc12 [Example 38, 7-{[4-fluoro-2-(propan-2-yloxy)phenyl]amino}-N-(tetrahydro-2H-pyran-4-ylmethyl)[1,3]thiazolo[5,4-d]pyrimidine-2-carboxamide]
158 | 63.1 | 126 | CC(C)Oc1cc(F)ccc1Nc1ncnc2sc(C(=O)NCCN(C)C)nc12 [Example 39, N-[2-(dimethylamino)ethyl]-7-{[4-fluoro-2-(propan-2-yloxy)phenyl]amino}[1,3]thiazolo[5,4-d]pyrimidine-2-carboxamide]
25.1 | 20 | 12.6 | O=C(NC1CCOCC1)c1nc2c(N3CC4(CCCC4)c4ccccc43)ncnc2s1 [Example 41, 7-(Spiro[cyclopentane-1,3′-indol]-1′(2′H)-yl)-N-(tetrahydro-2H-pyran-4-yl)[1,3]thiazolo[5,4-d]pyrimidine-2-carboxamide]
31.6 | 31.6 | 20 | N#Cc1ccc2c(c1)CCN2c1ncnc2sc(C(=O)NC3CCOCC3)nc12 [Example 42, 7-(5-cyano-2,3-dihydro-1H-indol-1-yl)-N-(tetrahydro-2H-pyran-4-yl)[1,3]thiazolo[5,4-d]pyrimidine-2-carboxamide]
39.8 | 25.1 | 31.6 | O=C(NC1CCOCC1)c1nc2c(N3CCc4cnccc43)ncnc2s1 [Example 43, 7-(2,3-Dihydro-1H-pyrrolo[3,2-c]pyridin-1-yl)-N-(tetrahydro-2H-pyran-4-yl)[1,3]thiazolo[5,4-d]pyrimidine-2-carboxamide]
158 | 100 | 100 | O=C(NC1CCOCC1)c1nc2c(N3CCc4ncccc43)ncnc2s1 [Example 44, 7-(2,3-Dihydro-1H-pyrrolo[3,2-b]pyridin-1-yl)-N-(tetrahydro-2H-pyran-4-yl)[1,3]thiazolo[5,4-d]pyrimidine-2-carboxamide]

SMILES | IC50 (Full-length human MNK1) [nM] | IC50 [1] [nM] | IC50 (Full-length human MNK2) [nM]
CN(C)CCCNC(=O)c1nc2c(Nc3ccc(F)cc3OC3CCCC3)ncnc2s1 [Example 22, 7-[2-(Cyclopentoxy)-4-fluoro-anilino]-N-[3-(dimethylamino)propyl]thiazolo[5,4-d]pyrimidine-2-carboxamide] | 100 | 63.1 | 63.1
CN1CCC2(CC1)CN(c1ncnc3sc(C(=O)NC4CCOCC4)nc13)c1ccccc12 [Example 40, 7-(1′-Methylspiro[indole-3,4′-piperidin]-1(2H)-yl)-N-(tetrahydro-2H-pyran-4-yl)[1,3]thiazolo[5,4-d]pyrimidine-2-carboxamide] | 12.6 | 50.1 | 20
